Assay results from publication PMC7998589, “A Radiobrominated Tyrosine Kinase Inhibitor for EGFR with L858R/T790M Mutations in Lung Carcinoma” (Pharmaceuticals, 2021).
Values belong to the molecule of their own block, whether it stands above or below them.

Experiments:
[1] = system: H1975 (L858R/T790M double mutations EGFR); experiment: Cellular uptake and blocking study, H1975; assay type: cell-based, human
Description: H1975 (1 × 10^5 cells/well), H441 (1 × 10^5 cells/well), and H3255 (2 × 10^5 cells/well) NSCLC cells were cultured in 6 well plates. Cells were incubated in medium with 10% FBS and 100 IU/mL penicillin–streptomycin at 37 °C in a humidified atmosphere with 5% CO2 for 24 h. […] The cells were dissolved by a 1.0 M NaOH aqueous solution (0.5 mL × 2). The cell lysate was transferred into a test tube. The radioactivity of ^77Br was measured by an auto well gamma counter at a 100–600 keV energy range. […] The BCA protein assay kit protocol was used to determine the protein concentration.

[2] = parameters: method as in PMID 32599930; details: ref [9]; cited from earlier work
H1975 and H441 tumors = experiment: Biodistribution of double tracers in tumor-bearing mice; assay type: in vivo, BALB/c nu/nu mice
Description: Six weeks old male ddY mice and four weeks old female BALB/c nu/nu mice were purchased from Japan SLC Inc. (Hamamatsu, Japan). Tumor-bearing mice were prepared by subcutaneous injection of cells suspended in 100 μL medium to the female BALB/c nu/nu mice. H1975 cells (5 × 10^6 cells) were implanted in the right shoulder, and H441 cells (3 × 10^6 cells) were implanted in the left shoulder. The tumor reached palpable size after post-inoculation 12 and 9 days for H1975 and H441, respectively.
(§1) One month later, ^125I activity was determined.

[3] = Biodistribution of double tracers in normal mice; assay type: in vivo; details: ddY mice
Description: as §1

H1975 (EGFR L858R/T790M) = experiment: WST-8 cytotoxicity assay, H1975; assay type: cell-based; details: Homo sapiens, NCI-H1975
From the text: (§2) The data were statistically analyzed and presented as mean ± standard deviation (SD).

H3255 (EGFR L858R) = experiment: WST-8 cytotoxicity assay, H3255; assay type: cell-based; details: Homo sapiens, NCI-H3255
From the text: as §2

H441 (wild-type EGFR) = experiment: WST-8 cytotoxicity assay, H441; assay type: cell-based; details: Homo sapiens, NCI-H441
From the text: as §2

Biodistribution, Blood (H1975 and H441 tumors; 1 h after i.v. injection): 0.50 % ID/g
Biodistribution, Bone (H1975 and H441 tumors; 1 h after i.v. injection): 0.42 % ID/g
Biodistribution, Brain (H1975 and H441 tumors; 1 h after i.v. injection): 0.04 % ID/g
Biodistribution, H441 tumor (H1975 and H441 tumors; 1 h after i.v. injection): 0.44 % ID/g
Biodistribution, H1975 tumor (H1975 and H441 tumors; 1 h after i.v. injection): 0.68 % ID/g
Biodistribution, Heart (H1975 and H441 tumors; 1 h after i.v. injection): 0.61 % ID/g
Biodistribution, Kidney (H1975 and H441 tumors; 1 h after i.v. injection): 2.64 % ID/g
Biodistribution, Large intestine (H1975 and H441 tumors; 1 h after i.v. injection): 27.65 % ID/g
Biodistribution, Liver (H1975 and H441 tumors; 1 h after i.v. injection): 30.32 % ID/g
Biodistribution, Lung (H1975 and H441 tumors; 1 h after i.v. injection): 1.62 % ID/g
Biodistribution, Muscle (H1975 and H441 tumors; 1 h after i.v. injection): 0.36 % ID/g
Biodistribution, Pancreas (H1975 and H441 tumors; 1 h after i.v. injection): 2.71 % ID/g
Biodistribution, Small intestine (H1975 and H441 tumors; 1 h after i.v. injection): 86.29 % ID/g
Biodistribution, Spleen (H1975 and H441 tumors; 1 h after i.v. injection): 1.80 % ID/g
Biodistribution, Stomach (H1975 and H441 tumors; 1 h after i.v. injection): 1.49 % ID/organ
Biodistribution, Blood (H1975 and H441 tumors; 6 h after i.v. injection): 0.17 % ID/g
Biodistribution, Bone (H1975 and H441 tumors; 6 h after i.v. injection): 0.22 % ID/g
Biodistribution, Brain (H1975 and H441 tumors; 6 h after i.v. injection): 0.02 % ID/g
Biodistribution, H441 tumor (H1975 and H441 tumors; 6 h after i.v. injection): 0.19 % ID/g
Biodistribution, H1975 tumor (H1975 and H441 tumors; 6 h after i.v. injection): 0.10 % ID/g
Biodistribution, Heart (H1975 and H441 tumors; 6 h after i.v. injection): 0.53 % ID/g
Biodistribution, Kidney (H1975 and H441 tumors; 6 h after i.v. injection): 1.05 % ID/g
Biodistribution, Large intestine (H1975 and H441 tumors; 6 h after i.v. injection): 95.22 % ID/g
Biodistribution, Liver (H1975 and H441 tumors; 6 h after i.v. injection): 10.16 % ID/g
Biodistribution, Lung (H1975 and H441 tumors; 6 h after i.v. injection): 0.37 % ID/g
Biodistribution, Muscle (H1975 and H441 tumors; 6 h after i.v. injection): 0.10 % ID/g
Biodistribution, Pancreas (H1975 and H441 tumors; 6 h after i.v. injection): 0.36 % ID/g
Biodistribution, Small intestine (H1975 and H441 tumors; 6 h after i.v. injection): 11.72 % ID/g
Biodistribution, Spleen (H1975 and H441 tumors; 6 h after i.v. injection): 0.25 % ID/g
Biodistribution, Stomach (H1975 and H441 tumors; 6 h after i.v. injection): 1.17 % ID/organ
Biodistribution, Blood ([3]; 10 min after i.v. injection): 1.41 % ID/g
Biodistribution, Bone ([3]; 10 min after i.v. injection): 0.74 % ID/g
Biodistribution, Brain ([3]; 10 min after i.v. injection): 0.08 % ID/g
Biodistribution, Heart ([3]; 10 min after i.v. injection): 2.24 % ID/g
Biodistribution, Kidney ([3]; 10 min after i.v. injection): 9.66 % ID/g
Biodistribution, Large intestine ([3]; 10 min after i.v. injection): 0.94 % ID/g
Biodistribution, Liver ([3]; 10 min after i.v. injection): 19.21 % ID/g
Biodistribution, Lung ([3]; 10 min after i.v. injection): 3.61 % ID/g
Biodistribution, Muscle ([3]; 10 min after i.v. injection): 1.20 % ID/g
Biodistribution, Pancreas ([3]; 10 min after i.v. injection): 2.03 % ID/g
Biodistribution, Small intestine ([3]; 10 min after i.v. injection): 36.32 % ID/g
Biodistribution, Spleen ([3]; 10 min after i.v. injection): 2.73 % ID/g
Biodistribution, Stomach ([3]; 10 min after i.v. injection): 2.60 % ID/organ
Biodistribution, Blood ([3]; 1 h after i.v. injection): 0.17 % ID/g
Biodistribution, Bone ([3]; 1 h after i.v. injection): 0.16 % ID/g
Biodistribution, Brain ([3]; 1 h after i.v. injection): 0.01 % ID/g
Biodistribution, Heart ([3]; 1 h after i.v. injection): 0.30 % ID/g
Biodistribution, Kidney ([3]; 1 h after i.v. injection): 2.40 % ID/g
Biodistribution, Large intestine ([3]; 1 h after i.v. injection): 1.65 % ID/g
Biodistribution, Liver ([3]; 1 h after i.v. injection): 7.40 % ID/g
Biodistribution, Lung ([3]; 1 h after i.v. injection): 0.59 % ID/g
Biodistribution, Muscle ([3]; 1 h after i.v. injection): 0.23 % ID/g
Biodistribution, Pancreas ([3]; 1 h after i.v. injection): 0.86 % ID/g
Biodistribution, Small intestine ([3]; 1 h after i.v. injection): 40.99 % ID/g
Biodistribution, Spleen ([3]; 1 h after i.v. injection): 0.55 % ID/g
Biodistribution, Stomach ([3]; 1 h after i.v. injection): 1.64 % ID/organ
Biodistribution, Blood ([3]; 4 h after i.v. injection): 0.06 % ID/g
Biodistribution, Bone ([3]; 4 h after i.v. injection): 0.05 % ID/g
Biodistribution, Brain ([3]; 4 h after i.v. injection): 0.01 % ID/g
Biodistribution, Heart ([3]; 4 h after i.v. injection): 0.08 % ID/g
Biodistribution, Kidney ([3]; 4 h after i.v. injection): 0.75 % ID/g
Biodistribution, Large intestine ([3]; 4 h after i.v. injection): 81.54 % ID/g
Biodistribution, Liver ([3]; 4 h after i.v. injection): 6.45 % ID/g
Biodistribution, Lung ([3]; 4 h after i.v. injection): 0.16 % ID/g
Biodistribution, Muscle ([3]; 4 h after i.v. injection): 0.04 % ID/g
Biodistribution, Pancreas ([3]; 4 h after i.v. injection): 0.12 % ID/g
Biodistribution, Small intestine ([3]; 4 h after i.v. injection): 6.08 % ID/g
Biodistribution, Spleen ([3]; 4 h after i.v. injection): 0.20 % ID/g
Biodistribution, Stomach ([3]; 4 h after i.v. injection): 0.76 % ID/organ
Biodistribution, Blood ([3]; 24 h after i.v. injection): 0.13 % ID/g
Biodistribution, Bone ([3]; 24 h after i.v. injection): 0.09 % ID/g
Biodistribution, Feces ([3]; 24 h after i.v. injection): 71.54 % ID/organ
Biodistribution, Heart ([3]; 24 h after i.v. injection): 0.20 % ID/g
Biodistribution, Kidney ([3]; 24 h after i.v. injection): 0.54 % ID/g
Biodistribution, Large intestine ([3]; 24 h after i.v. injection): 0.52 % ID/g
Biodistribution, Liver ([3]; 24 h after i.v. injection): 1.40 % ID/g
Biodistribution, Lung ([3]; 24 h after i.v. injection): 0.14 % ID/g
Biodistribution, Muscle ([3]; 24 h after i.v. injection): 0.04 % ID/g
Biodistribution, Pancreas ([3]; 24 h after i.v. injection): 0.05 % ID/g
Biodistribution, Small intestine ([3]; 24 h after i.v. injection): 0.30 % ID/g
Biodistribution, Spleen ([3]; 24 h after i.v. injection): 0.13 % ID/g
Biodistribution, Stomach ([3]; 24 h after i.v. injection): 0.05 % ID/organ
Biodistribution, Urine ([3]; 24 h after i.v. injection): 1.63 % ID/organ
eliminated in feces ([3]; 24 h postinjection): up to 71%
SMILES: C=CC(=O)Nc1cc([125I])cc(Nc2nc(Nc3ccc(N4CCN(C(C)=O)CC4)cc3OC)ncc2C(F)(F)F)c1 [[^125I]ICO1686]
accumulation in H1975 versus H3255 and H441 ([1]; 4 h of incubation): significantly higher
reduction of uptake upon pretreatment with CO-1686 ([1]; H1975): ~60%
accumulation of radioactivity with pretreatment with excess CO-1686 ([1]; H1975, 4 h, CO-1686 100 µM blocking): 67.7 % dose/mg protein
accumulation of radioactivity (cell uptake) ([1]; H1975, 4 h incubation): 151.3 % dose/mg protein
effect of gefitinib on uptake ([1]; H1975, gefitinib 100 µM blocking): not significantly reduced
log P [2]: 1.84 ± 0.01

SMILES: C=CC(=O)Nc1cc(Br)cc(Nc2nc(Nc3ccc(N4CCN(C(C)=O)CC4)cc3OC)ncc2C(F)(F)F)c1 [compound 9, N-(3-{[2-({4-[4-acetylpiperazin-1-yl]-2-methoxyphenyl}amino)-5-(trifluoromethyl)pyrimidin-4-yl]amino}-5-bromophenyl)acrylamide]
IC50 (H1975 (EGFR L858R/T790M)): 180 ± 60 nM
IC50 (H3255 (EGFR L858R)): 200 ± 10 nM
IC50 (H441 (wild-type EGFR)): 640 ± 40 nM
